Holding throughout (experiment): In vivo antibacterial test (animal protection test, septicemia mouse model)
Test [1] relates to PP-R (β-lactam-resistant Neisseria gonorrhoeae). Particulars: sc, strain PP-R, ICR mice. As to the method: (§1) The stability test samples in test example 1 were sampled at 0th month and subjected to in vivo antibacterial test; and the stability test samples were sampled at 30th month again, and subjected to in vivo antibacterial test. The in vivo antibacterial tests were performed according to the following method.
(§2) Test Samples: Compositions I to VIII, Sterile Powder for Injection I, Sterile Powder for Injection II, Sterile Powder for Injection IV, Lyophilized Powder for Injection I, Lyophilized Powder for Injection II, Lyophilized Powder for Injection A, Sterile Powder for Injection A and Sterile Powder for Injection B, all of which were obtained from the test example 1 at 0th and 30th month; and control drugs: ceftriaxone sodium, levofloxacin hydrochloride, azithromycin, doxycycline hydrochloride and spectinomycin hydrochloride, wherein, a batch of the control drugs were purchased at 0th month of the stability test so as to match with the test samples at 0th month, and another batch of control drugs were purchased at 30th month of the stability test so as to match with the test samples at 30th month, and the time when the two batches were purchased was within one month from the date of their production.
(§3) Animals: ICR mice weighed 18-22 g, half male and half female.
(§4) Strains: ATCC700603 (Klebsiella pneumoniae), ATCC43069 (Neisseria gonorrhoeae), Q-R (quinolone-resistant Neisseria gonorrhoeae), T-R (tetracycline-resistant Neisseria gonorrhoeae), PP-R (β-lactam-resistant Neisseria gonorrhoeae), MAC-R (macrolide-resistant Neisseria gonorrhoeae), SPE-R (spectinomycin-resistant Neisseria gonorrhoeae) and QS-R (ceftriaxone-resistant Neisseria gonorrhoeae), wherein, ATCC700603, and ATCC43069 were purchased from ATCC; QS-R was prepared by in vitro inducing Neisseria gonorrhoeae, which was sensitive to ceftriaxone, with a subinhibitory concentration of ceftriaxone, culturing at 36° C., 5% CO2, passaging once every 24 hours, and then transferring to a higher concentration of ceftriaxone on GC medium until the strain was resistant to ceftriaxone; and other strains were clinical isolates.
(§5) Aseptic thoracotomy was performed timely on the mice died of infection, the heart blood or intracavity effusion was taken and evenly coated on corresponding agar plates, and incubated for 18 hours at 37° C. […] The obtained strain was used to infect mice again.
(§6) After infection, the number of dead mice was recorded. The minimum dose causing 100% death of mice was 1 MLD, and was used as the dose in animal protection experiments. The bacterial concentration, which was one log lower than 1 MLD and infected the animals without mortality, was named 0.1 MLD. In experiments, a bacteria concentration of 1 MLD was used as the positive control for the infection experiments; and a bacteria concentration of 0.1 MLD was used as the negative control for the infection. In both positive and negative control groups, only the bacteria were administrated and no antibiotic treatment was provided. The mortality of the positive group should be 70% or more, and the mortality of the negative group should be 30% or less.
(§7) When the administration dosage was investigated first, there may be relatively great differences between the dose concentrations of the groups. When the range of the administration dosage was determined, it may be further investigated by reducing the differences until the suitable administration dosage (that is, for the group administrated with the highest concentration, 70% or more infected animals survived; and for the group administrated with the lowest concentration, no less than 70% of infected animals died) was found.

Test [2] deals with ATCC43069 (Neisseria gonorrhoeae). Particulars: ATCC43069, sc, ICR mice. How it is done: as §1, §2, §3, §4, §5, §6, §7
Test [3] relates to SPE-R (spectinomycin-resistant Neisseria gonorrhoeae). The following applies: sc, strain SPE-R, ICR mice. As to the method:
as §1, §2, §3, §4, §5, §6, §7

For test [4], the system named is Q-R (quinolone-resistant Neisseria gonorrhoeae). The following applies: sc, strain Q-R, ICR mice. How it is done: as §1, §2, §3, §4, §5, §6, §7
The subject of test [5] is T-R (tetracycline-resistant Neisseria gonorrhoeae). Particulars: sc, strain T-R, ICR mice. As to the method: as §1, §2, §3, §4, §5, §6, §7
Test [6] concerns QS-R (ceftriaxone-resistant Neisseria gonorrhoeae). Particulars: sc, strain QS-R, ICR mice. As to the method:
as §1, §2, §3, §4, §5, §6, §7

The subject of test [7] is MAC-R (macrolide-resistant Neisseria gonorrhoeae). The following applies: sc, strain MAC-R, ICR mice. As to the method:
as §1, §2, §3, §4, §5, §6, §7

Test [8] has as its system ATCC700603 (Klebsiella pneumoniae). Particulars: ATCC700603, sc, ICR mice. How it is done: as §1, §2, §3, §4, §5, §6, §7
The mark [9] stands for this setting: samples at 0th month of the stability test, subcutaneous immediately and after 6 hours, 7 days observation.
The mark [10] stands for this setting: samples at 30th month of the stability test (control drugs: batch purchased at 30th month), subcutaneous.
Setting [11] is: strain ATCC 43069, samples at 0th month of the stability test, subcutaneous immediately and after 6 hours, 7 days observation.
The mark [12] stands for this setting: strain ATCC 43069, samples at 30th month of the stability test (control drugs: batch purchased at 30th month), subcutaneous.

Here are results for five molecules from patent US10668079B2, “Composition composed of ceftriaxone sodium and sulbactum sodium” (XIANGBEI WELMAN PHARMACEUTICAL CO., LTD., priority 2016, dated 2020).

Where a name gives a salt, the structure may show the parent alone.

One may read the ED50 as the midpoint of the dose-response relation. High values mean a need for a large dose, low ones an effect at a small dose.

As to `CC[C@H]1OC(=O)[C@H](C)[C@@H](O[C@H]2C[C@@](C)(OC)[C@@H](O)[C@H](C)O2)[C@H](C)[C@@H](O[C@@H]2O[C@H](C)C[C@H](N(C)C)[C@H]2O)[C@](C)(O)C[C@@H](C)CN(C)[C@H](C)[C@@H](O)[C@]1(C)O` [Azithromycin, azithromycin], the ED50 in test [1] (setting [9]) came to 49 mg/kg; in test [1] (setting [10]) it was 55 mg/kg; in test [2] (setting [11]), 24 mg/kg; in test [2] (setting [12]), 31 mg/kg; in test [3] (setting [9]), 59 mg/kg; in test [3] (setting [10]), 65 mg/kg. Also, the ED50 was determined as 43 mg/kg in test [4] (setting [9]); 40 mg/kg in test [4] (setting [10]); 62 mg/kg in test [5] (setting [9]); 59 mg/kg in test [5] (setting [10]); 63 mg/kg in test [6] (setting [9]); 69 mg/kg in test [6] (setting [10]). The ED50 in test [7] (setting [9]) was 487 mg/kg; in test [7] (setting [10]), 497 mg/kg.

In the case of `CO/N=C(\C(=O)N[C@@H]1C(=O)N2C(C(=O)O)=C(CSc3nc(=O)c(=O)[nH]n3C)CS[C@H]12)c1csc(N)n1` [Ceftriaxone Sodium, ceftriaxone sodium], the ED50 stood at 208 mg/kg in test [1] (setting [9]); 224 mg/kg in test [1] (setting [10]); 16 mg/kg in test [2] (setting [11]); 21 mg/kg in test [2] (setting [12]); 52 mg/kg in test [3] (setting [9]); 66 mg/kg in test [3] (setting [10]). Further, the ED50 in test [4] (setting [9]) was 31 mg/kg; in test [4] (setting [10]), 30 mg/kg; in test [5] (setting [9]), 46 mg/kg; in test [5] (setting [10]), 57 mg/kg; in test [8] (strain ATCC 700603, samples at 0th month of the stability test, subcutaneous immediately and after 6 hours, 7 days observation), 35 mg/kg; in test [8] (strain ATCC 700603, samples at 30th month of the stability test (control drugs: batch purchased at 30th month), subcutaneous) it was 37 mg/kg. The ED50 turned out to be 337 mg/kg in test [6] (setting [9]), 373 mg/kg in test [6] (setting [10]), 34 mg/kg in test [7] (setting [9]) and 37 mg/kg in test [7] (setting [10]).

With `C[C@H]1c2cccc(O)c2C(=O)C2=C(O)[C@]3(O)C(=O)C(C(N)=O)=C(O)[C@@H](N(C)C)[C@@H]3[C@@H](O)[C@@H]21` [Doxycycline Hydrochloride, doxycycline hydrochloride], the ED50 in test [1] (setting [9]) came out at 52 mg/kg; in test [1] (setting [10]), 47 mg/kg; in test [2] (setting [11]), 37 mg/kg; in test [2] (setting [12]) it was 32 mg/kg; in test [3] (setting [9]), 52 mg/kg; in test [3] (setting [10]) it was 51 mg/kg. In addition, the ED50 worked out at 55 mg/kg in test [4] (setting [9]); 51 mg/kg in test [4] (setting [10]); 456 mg/kg in test [5] (setting [9]); 432 mg/kg in test [5] (setting [10]); 105 mg/kg in test [6] (setting [9]); 99 mg/kg in test [6] (setting [10]). Also, the ED50 in test [7] (setting [9]) was 58 mg/kg; in test [7] (setting [10]) it was 62 mg/kg.

For the molecule `C[C@H]1COc2c(N3CCN(C)CC3)c(F)cc3c(=O)c(C(=O)O)cn1c23` [Levofloxacin Hydrochloride, levofloxacin hydrochloride], the ED50 in test [1] (setting [9]) turned out to be 37 mg/kg; in test [1] (setting [10]), 42 mg/kg; in test [2] (setting [11]), 25 mg/kg; in test [2] (setting [12]), 30 mg/kg; in test [3] (setting [9]), 67 mg/kg; in test [3] (setting [10]), 72 mg/kg. The ED50 in test [4] (setting [9]) was 573 mg/kg; in test [4] (setting [10]), 564 mg/kg; in test [5] (setting [9]), 48 mg/kg; in test [5] (setting [10]), 43 mg/kg; in test [6] (setting [9]) it was 72 mg/kg; in test [6] (setting [10]), 82 mg/kg. Moreover, the figures for the ED50 in test [7] (setting [9]) and in test [7] (setting [10]) were 36 mg/kg and 41 mg/kg, respectively.

In the case of `CN[C@@H]1[C@H](O)[C@H](NC)[C@H]2O[C@@]3(O)C(=O)C[C@@H](C)O[C@H]3O[C@@H]2[C@H]1O` [Spectinomycin Hydrochloride, spectinomycin hydrochloride], the ED50 in test [1] (setting [9]) came to 56 mg/kg; in test [1] (setting [10]) it was 67 mg/kg; in test [2] (setting [11]) it was 19 mg/kg; in test [2] (setting [12]), 22 mg/kg; in test [3] (setting [9]), 621 mg/kg; in test [3] (setting [10]), 571 mg/kg. The ED50 in test [4] (setting [9]) was found to be 40 mg/kg; in test [4] (setting [10]) it was 42 mg/kg; in test [5] (setting [9]) it was 61 mg/kg; in test [5] (setting [10]), 68 mg/kg; in test [6] (setting [9]), 41 mg/kg; in test [6] (setting [10]), 56 mg/kg. The results for the ED50 in test [7] (setting [9]) and in test [7] (setting [10]) were 38 mg/kg and 42 mg/kg, respectively.
